Results as given in a melting point compilation (Tetko et al.; mined from patent text by program, amines drawn as free bases though some values may be those of a salt).

| melting point [°C] | SMILES |
| --- | --- |
| 83 to 85 | CCC1(CC)CN(C(C)(C)C)C(=O)C(CC)(CC)N1OCc1ccccc1 |
| 92 to 93 | CCCCCCCCCCCCCCS(N)(=O)=O |
| 288 | O=c1[nH]c2c3ccccc3ccc2n(C2CCCCC2)c1=O |
| 158 to 161 | COC(=O)NC1=NCC(c2ccccc2C)N1C (stereo not given) |
| 114 | N#Cc1cccc(Oc2ccnc(Cl)c2)n1 |
| > 260 | N#Cc1cnc2sc(-c3ccc(C=O)cc3)cc2c1Nc1ccc2[nH]ccc2c1 |
| 225 to 226 | OCc1cccc(-c2cc3nccnc3[nH]2)c1 |
| 119 to 120 | CCOC(=O)N[C@@H]1CCc2c(ccc(OCc3ccccc3)c2N(C)Cc2ccccc2)[C@H]1O (relative stereo) |
| 165 to 166 | Nc1cc(-c2nnc(CCc3cccc(F)c3)o2)ccn1 |
| 180 to 182 | CCCCn1nc(C(C)(F)F)nc1Cc1ccc(-c2ccccc2-c2nnn[nH]2)nc1 |
| 260 to 262 | CN1C(=O)CCc2cc(N3C[C@H](C(N)=O)OC3=O)cc(F)c21 |
| 103 to 105 | CCCc1cc(Cl)c2oc(C(=O)c3ccc(OC)cc3)c(C)c2c1OC(=O)c1ccc(OC)cc1 |
| 82 to 83 | Cc1ccc(S(=O)(=O)OCCC2COc3ccccc3O2)cc1 (stereo not given) |
| 92 to 94 | C=CCNC(=O)N1CC(Oc2ccc(F)cc2)C1 |
| 150 to 151 | O=C(O)c1cc2cc(Cl)ccc2nc1NC(COCc1ccccc1)C(=O)Nc1ccccc1 (stereo not given) |
| 180 to 181 | COc1ccc(CSc2nnc(-c3ccnc(NC(=O)CCc4ccccc4)c3)o2)cc1C(F)(F)F |
| 192 to 193 | COc1ccc(C(=O)/C(Cc2cc(OC)c(OC)c(OC)c2)=C(/C(=O)O)c2ccc3c(c2)OCO3)cc1 |
| 218 | CONC(=O)c1ccccc1S(=O)(=O)NC(=O)Nc1nc(C)cc(C)n1 |
| 75.5 to 77.5 | O=C1OCC2Cc3cccc(F)c3OC12 (stereo not given) |
| 83 to 86 | O=C(O)C(CBr)(CBr)CBr |
| 180 to 182 | O=C(O)CCCCCOc1ccc(CCc2ccncc2)cc1 |
| 240 | CNC(=O)c1nc(Cl)c(Cl)[nH]1 |
| 284 to 286 | CC1=C(c2cccc(C(F)(F)F)c2)n2ncc3c(=O)nc(NC(C)C)n(c32)C1 |
| 197 to 198 | CCOC(=O)C1=C(C(F)(F)F)NC2=C(C(=O)CCC2)C1c1nccn1C (stereo not given) |
| 236 to 239 | CS(=O)(=O)c1ccc(-c2cnn(-c3ccccc3[N+](=O)[O-])c(=O)c2-c2ccc(F)cc2)cc1 |
| 66 to 69 | N#CCOS(=O)(=O)c1cccc([N+](=O)[O-])c1 |
| 183 to 185 | CCC(C)Oc1ccccc1-c1ncc(C(N)=O)c(=O)[nH]1 (stereo not given) |
| 247 to 249 | Cc1c(-c2ccc(NC(=O)C(C)C)cc2)sc2ncc(C(=O)C(C)C)c(O)c12 |

| melting point [°C] | SMILES |
| --- | --- |
| 164 to 166 | CCCCCCc1ccc(-c2ccc(C(=O)Oc3ccc(C(=O)O)c(Cl)c3)cc2)cc1 |
| 95 to 98 | CCCCc1nc(Cl)c(CO)n1Cc1ccc(-c2ccccc2-c2nnnn2C(c2ccccc2)(c2ccccc2)c2ccccc2)cc1 |
| 252 to 255 | COc1cccc(NC(=O)C(N)=O)c1C(N)=O |
| 138 to 139 | O=C(O)CCCOc1ccc(OCCC(c2ccccc2)(c2ccccc2)c2ccccc2)cc1 |
| 115 to 116 | CCSc1cc(C)nc(SCC)c1NC(=O)CCCCCCCCSc1nc2cccc(C(F)(F)F)c2o1 |
| 107 to 108 | Cc1oc(-c2ccccc2)nc1CCOc1ccc(N)cn1 |
| 99 to 100 | COC(=O)CN(CC(=O)OC)S(=O)(=O)c1ccc(C)cc1 |
| 157 to 159 | COC(=O)N[C@H]1Cc2ccccc2C1=O |
| 185 to 188 | CNC(=NC#N)NCCSCc1noc(NC(=N)N)n1 |
| 172 to 174 | Cc1c(NC(=O)CC(C)(C)C)c(C)c2c(c1-c1ccsc1)OCC2c1ccc(C(C)C)cc1 (stereo not given) |
| 139 to 144 | CCOC(=O)C(=O)Nc1sc(-c2ccccc2)cc1[N+](=O)[O-] |
| 192 to 194 | CN(CC1=NC(=S)N=N1)C(COCc1cc(C(F)(F)F)cc(C(F)(F)F)c1)C(c1ccccc1)c1ccccc1 (stereo not given) |
| 66 | CSc1nc(Cl)c(C(Cl)Cl)c(Cl)n1 |
| 200 to 201 | CC1(C)CCC(C)(C)c2cc3c(cc21)OCC=C3Cc1ccc(C(=O)O)cc1 |
| 43.5 to 45.2 | O=C(Oc1cccc(F)c1)c1ccc(F)cc1 |
| 158 to 160 | CC(C)OC12NC(=O)C(C)(C(C)C)N1C(=O)c1cccnc12 (stereo not given) |
| 215 to 216 | NC(Cc1ccccc1)C(=O)Nc1nc2ccccc2c(=O)o1 (stereo not given) |
| 114 | COc1cc(N)c(Cl)cc1C(=O)NC1CCN(CCNC(=O)C(CO)c2ccccc2)CC1OC (stereo not given) |
| 101 to 102 | C=C(C)Sc1oc2cc(OCc3ccccc3)ccc2c(=O)c1-c1ccc(OC)cc1 |
| 178 | CCCOc1ccccc1-c1nc2nc(N(C)C)ncc2c(=O)[nH]1 |
| 64 to 65 | CCOC(=O)c1c(O)c2cc(Br)ccc2c(=O)n1CC1CC1 |
| 157 to 158 | CSc1ccc(C(=O)Nc2cccnc2C(=O)Nc2ccc(Cl)cn2)c(OC2CCNCC2)c1 |
| 87 to 91 | CC(C)N(N)C(=O)N1CCCC1C(=O)OC(C)(C)C (stereo not given) |
| > 360 | CCCC(=O)Nc1cnc2cccnc2c1O |
| 97 to 99 | CCC1(CC)CC(=O)c2ccc(O)cc2O1 |
| 166 to 168 | O=C1COc2cccc3nc4c(c(c23)N1Cc1ccccc1)CCCC4 |
| 240 to 243 | CC(C)NCC1CCN(c2nc3c(cc2F)c(=O)c(C(=O)O)cn3C2CC2)C1 (stereo not given) |

Continued, molecule first:

| SMILES | melting point [°C] |
| --- | --- |
| N#Cc1nn(-c2c(Cl)cc(C(F)(F)F)cc2Cl)cc1OC(F)F | 85 to 87 |
| O=C1CCC(N2C(=O)c3ccccc3C2=O)c2ccsc21 (stereo not given) | 163 to 166 |
| C#CC1(OC(=O)C(C)C)C(COC(=O)c2ccc(Cl)cc2)OC(n2ccc(N)nc2=O)C1OC(=O)C(C)C (stereo not given) | 106 to 108 |
| N#Cc1cc2[nH]c(=O)c(=O)n(C3CCCCC3)c2c2ccccc12 | > 300 |
| O=C(c1cccc(O)c1)c1nn(C2CCCC2)c2c(C(F)(F)F)cccc12 | 152 |
| CCNC(=O)c1cnn(-c2ccccc2)c1Br | 158 to 160 |
| COc1cc(C(=O)O)ccc1Cc1cn(C)c2ccc(NC(=O)OC3CCCC3)cc12 | 157 to 158 |
| COC(=O)c1cc(-n2cnnn2)ccc1OC | 185 to 187 |
| CC1=NC2(O)c3cc(-c4ccc(C(F)(F)F)cc4)ccc3CC2S1 (stereo not given) | 213 to 217 |
| CCC(Oc1cnc(Cl)c(Cl)c1)C(=O)O (stereo not given) | 117 to 118 |
| O=C(Nc1nc(=O)n(S(=O)(=O)c2ccc(Cl)cc2)cc1F)c1ccc(Cl)cc1 | 169 to 172 |
| O=C(O)c1ccccc1-c1ccc2c(C(=O)NCC34CC5CC(CC(C5)C3)C4)c(Cl)ccc2n1 | 156 to 158 |
| COCc1ncc(-n2nc(C)cc2C)nc1Nc1ccc(Cl)cc1 | 105 to 108 |
| COC(=O)CCCC(=O)c1cc2c(c(S(=O)(=O)Cl)c1)OCC2 | 78 to 79 |
| CCOP(=O)(C[C@H]1CCN[C@@H](C(N)=O)C1)OCC (relative stereo) | 155 to 158 |
| c1csc(-c2ncc(COc3ccc(CCCCn4ccnc4)cc3)s2)c1 | 128 to 129 |
| CC(C)c1cc(-c2ccc(F)c3ccccc23)nc(Nc2ccccc2)n1 | 85.7 to 86.3 |
| O=C(O)CS(=O)(=O)c1ccc2c(-c3ccc(Cl)cc3)noc2c1Cl | 212 to 213 |
| O=C(Nc1ccc([N+](=O)[O-])cc1)c1ccc(Nc2ccncc2)cc1 | 298 to 302 |
| CCCCCCCc1c(C(=O)OCC)[nH]c(C)c1C | 68 to 69 |
| CC1=CC(c2cccc(C(F)(F)F)c2)C2=C(CCCC2=O)N1 (stereo not given) | 184 to 185 |
| COC1=CC2=CCC3C4CC=CC4(C)CCC3C2(C)CC1 (stereo not given) | 83 to 92 |
| CC(c1ccc(N(C)C)cc1)c1ccc(N(C)C)cc1 | 68 |

| SMILES | melting point [°C] |
| --- | --- |
| Cc1ccc2c(c1)CCC2=NNC(=N)N | > 275 |
| Cc1ccc(N(C)N=C(N)C(N)=O)cc1OCC(F)(F)C(F)(F)F | 129 to 130 |
| CCCCC(=O)Nc1ccc(Br)c(-n2nc(CC)n(Cc3ccc(-c4ccccc4S(=O)(=O)NC(=O)OC(C)(C)C)cc3F)c2=O)c1 | 108 to 110 |
| COc1ccccc1CC(=O)c1ccc(C(C)C)c(OS(N)(=O)=O)c1C(C)C | 159 to 161 |
| COc1ccccc1-c1ccc(C)cc1 | 70 to 72 |
| O=C(Nc1ccccc1)O[C@@H]1CN=C(c2ccccc2)O[C@H]1c1ccccc1 (racemic) | 111 |
| CC=C1CCC2C3CC=C4CC(O[Si](CC)(CC)CC)CC(O[Si](CC)(CC)CC)C4(C)C3CCC12C (stereo not given) | 81 to 82 |
| CC(=O)OC1CSC(Oc2ccc(C)nc2C)C(OC(C)=O)C1OC(C)=O (stereo not given) | 139 to 140 |
| O=C(Nc1ccc(Oc2ccccc2)cc1)N1CCN(c2ncnc3ccccc23)CC1 | 74 to 75 |
| CN1C(=O)[C@H](NC(=O)C2CCC3(CC2)CCN(C(=O)OC(C)(C)C)CC3)N=C(c2ccccc2)c2ccccc21 | 135 to 138 |
| O=C(O)c1ccc(C=C(C(=O)C2CC2)C(=O)C2CC2)cc1 | 175 to 178 |
| O=C(Cl)c1ccc(S(=O)(=O)NC(=O)c2ccccc2Cl)cc1 | 198 to 200 |
| CCCc1c(OCc2ccccc2)ccc2c(=O)cc(/C=C/C(=O)OCC)oc12 | 140 |
| CCOc1cc(CCl)cc(OCc2nc(-c3ccccc3)oc2C)c1 | 86 to 87 |
| CCCOC12CCC(=O)C3(C)Oc4c(O)ccc5c4C31CCN(CC1CC1)C2C5 (stereo not given) | 184 to 186 |
| NC(c1ccc(Cl)cc1Cl)P(O)O (stereo not given) | 244 |
| CCOC(=S)CC/C(C)=C/Cc1c(OC)c(C)c2c(c1OC(C)=O)C(=O)OC2 | 81 to 84 |
| O=C(CCNC(=O)OCc1ccccc1)NC1OC(C(=O)O)CC1O (stereo not given) | 195 to 198 |
| Nc1cc(CCC(=O)NC2CCc3ccccc32)ccc1O (stereo not given) | 130 to 131 |
| N#Cc1c[nH]c(-c2ccccc2)c1 | 150 to 151 |
| CCSc1c(Cl)c(C(=O)O)c(C(O)=NC)c(Cl)c1SCC | 154 to 155 |
| COc1ccc(Cn2c(C(=O)O)c(-c3ccc4c(c3)OCO4)c3cc(OCc4ccccc4)ccc32)c(OCC(=O)O)c1 | 147 to 148 |
